# Data as given in patent US10517889B2, “Modulators of SMAD7 expression” (Ionis Pharmaceuticals, Inc., priority 2017, dated 2019).
# Strand notation (5' to 3'): a small letter for the sugar, then the base; units joined by * are phosphorothioate-linked, units joined directly phosphodiester-linked; [ ] holds rarer units or linkages, { } end groups; capitals alone tell only the bases. e = 2'-O-(2-methoxyethyl) (MOE); [5mC] = 5-methylcytosine; d = 2'-deoxy (DNA)
# Key:
# [1] = tested on: murine Smad7 mRNA; test: Dose-dependent inhibition of murine Smad7 mRNA in bEND cells, electroporation (Example 5, Study 2); format: cell-based, mouse; settings: electroporation; for % inhibition of SMAD7 mRNA expression: approximately 16 hours
# Method: Many of the Ionis designed oligonucleotides as well as ION 736697/Mongersen are complementary to mouse Smad7 mRNA. […] After a treatment period of approximately 16 hours, the cells were washed and lyzed and RNA on 384-well Pall plates with DNase I treatment. Smad7 mRNA levels were measured by quantitative real-time PCR. Primer probe set RTS1114 (forward sequence […], designated herein as SEQ ID NO: 8; reverse sequence […], designated herein as SEQ ID NO: 9; probe sequence […], designated herein as SEQ ID NO: 10) was used to measure murine Smad7 mRNA levels. Smad7 mRNA levels were adjusted according to total RNA content, as measured by RIBOGREEN®. Results are presented as percent inhibition of Smad7 mRNA expression, relative to untreated control cells.
# Many of the Ionis oligonucleotides had greater potency than ION 736697/Mongersen.
# [2] = tested on: human SMAD7 mRNA; test: Dose-dependent inhibition of human SMAD7 mRNA expression in A431 cells, oligonucleotide added without transfection (Example 5, Study 1); format: cell-based; settings: approximately 48 hours
# Method: The newly designed compounds disclosed herein are cEt-modified antisense oligonucleotides. […] The studies described below show a comparison of select cEt-modified gapmers and ION0736697/Mongersen.
# A431 cells were plated in collagen I-coated 96-well plates in DMEM with […]. Immediately after plating, 0.08 μM, 0.25 μM, 0.74 μM, 2.22 μM, 6.67 μM, or 20.00 μM concentrations of antisense oligonucleotide were added. The plates were shaken briefly before incubating at 37° C. and 10% CO2. After a treatment period of approximately 48 hours, the cells were washed and lyzed and RNA on 384-well Pall plates with DNase I treatment. SMAD7 mRNA levels were measured by quantitative real-time PCR. Primer probe set RTS5062 was used to measure human SMAD7 mRNA levels. SMAD7 mRNA levels were adjusted according to total RNA content, as measured by RIBOGREEN®. Results are presented as percent inhibition of SMAD7 mRNA expression, relative to untreated control cells.
# All Ionis oligonucleotides had greater potency than ION 736697/Mongersen.
# [3] = tested on: human peripheral blood mononuclear cells (PBMCs); test: Human PBMC activation assay, cytokine levels (IL-10, IL-6, MCP-1, TNF-α) in supernatant after 24 hours (Example 9); settings: human PBMC supernatant after 24 hours
# [4] = tested on: human SMAD7 mRNA; test: Dose-dependent inhibition of human SMAD7 mRNA expression in Hep3B cells (Example 3, Study 1 and 2); format: cell-based; settings: electroporation; for % inhibition of SMAD7 mRNA expression: approximately 16 hours
# Outline: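 Hep3B cells, 20,000 per well, electroporated with antisense oligonucleotide at 0.31, 1.25, 5.00 or 20.00 μM (first series) or 0.74, 2.22, 6.67 or 20.00 μM (second series). After ~16 h, SMAD7 mRNA measured by RT-qPCR (RTS5062), normalised to RIBOGREEN total RNA. Percent inhibition vs untreated cells; IC50 derived.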
# [5] = tested on: human SMAD7 mRNA; test: Antisense inhibition of human SMAD7 mRNA expression in Hep3B cells by 5-10-5 MOE gapmers, single concentration, electroporation, RT-PCR (Example 1, Study 1 and 2); format: cell-based; settings: 5-10-5 MOE gapmers targeting SEQ ID NO: 1 and 2; for % Inhibition: Study 2, electroporation with 15,000 nM antisense oligonucleotide
# Outline: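 Readout is percent SMAD7 mRNA inhibition versus untreated cells, measured by qRT-PCR (RTS5062) and corrected for total RNA by RIBOGREEN. Oligonucleotide, 5,000 nM or 15,000 nM, was delivered by electroporation into Hep3B cells at 20,000 per well. RNA was collected about 24 h later.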
# [6] = tested on: human SMAD7 mRNA; test: Antisense inhibition of human SMAD7 mRNA expression in Hep3B cells by 3-10-3 cEt gapmers, 10,000 nM, electroporation (Example 2); format: cell-based; settings: Hep3B cells, electroporation with 10,000 nM antisense oligonucleotide, approximately 24 hours, primer probe set RTS5062, relative to untreated control cells
# Outline: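 qRT-PCR (RTS5062) of SMAD7 mRNA, normalised to RIBOGREEN total RNA, gave percent inhibition relative to untreated controls. Hep3B cells at 20,000 per well received 10,000 nM oligonucleotide by electroporation, with ~24 h treatment.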
# [7] = 312.5 nM, Study 1, relative to untreated control cells
substance,measurement,setting,value
736697 (antisense GTCGCCCCTTCTCCCCGCAGC; chemistry not fully specified) [compound 736697],% inhibition of SMAD7 mRNA expression,[1]; 0.25 μM,1%
same,% inhibition of SMAD7 mRNA expression,[1]; 0.74 μM,1%
same,% inhibition of SMAD7 mRNA expression,[1]; 2.22 μM,0%
same,% inhibition of SMAD7 mRNA expression,[1]; 6.67 μM,0%
same,% inhibition of SMAD7 mRNA expression,[1]; 20.00 μM,0%
same,IC50,[1],> 20 µM
same,% inhibition of SMAD7 mRNA expression,[2]; 0.08 μM,14%
same,% inhibition of SMAD7 mRNA expression,[2]; 0.25 μM,20%
same,% inhibition of SMAD7 mRNA expression,[2]; 0.74 μM,24%
same,% inhibition of SMAD7 mRNA expression,[2]; 2.22 μM,13%
same,% inhibition of SMAD7 mRNA expression,[2]; 6.67 μM,34%
same,% inhibition of SMAD7 mRNA expression,[2]; 20.00 μM,37%
same,IC50,[2]; SMAD7 mRNA,> 20 µM
same,Levels of IL-6,[3]; 0.0128 μM oligonucleotide,3.6 pg/mL
same,Levels of IL-10,[3]; 0.0128 μM oligonucleotide,2.1 pg/mL
same,Levels of MCP-1,[3]; 0.0128 μM oligonucleotide,297.6 pg/mL
same,Levels of TNF-α,[3]; 0.0128 μM oligonucleotide,2.8 pg/mL
same,Levels of IL-6,[3]; 0.064 μM oligonucleotide,5.3 pg/mL
same,Levels of IL-10,[3]; 0.064 μM oligonucleotide,3.1 pg/mL
same,Levels of MCP-1,[3]; 0.064 μM oligonucleotide,385.9 pg/mL
same,Levels of TNF-α,[3]; 0.064 μM oligonucleotide,3.5 pg/mL
same,Levels of IL-6,[3]; 0.32 μM oligonucleotide,12.3 pg/mL
same,Levels of IL-10,[3]; 0.32 μM oligonucleotide,3.5 pg/mL
same,Levels of MCP-1,[3]; 0.32 μM oligonucleotide,681.3 pg/mL
same,Levels of TNF-α,[3]; 0.32 μM oligonucleotide,5.5 pg/mL
same,Levels of IL-6,[3]; 1.6 μM oligonucleotide,15.5 pg/mL
same,Levels of IL-10,[3]; 1.6 μM oligonucleotide,2.2 pg/mL
same,Levels of MCP-1,[3]; 1.6 μM oligonucleotide,693.9 pg/mL
same,Levels of TNF-α,[3]; 1.6 μM oligonucleotide,6.8 pg/mL
same,Levels of IL-6,[3]; 8 μM oligonucleotide,57.4 pg/mL
same,Levels of IL-10,[3]; 8 μM oligonucleotide,4.2 pg/mL
same,Levels of MCP-1,[3]; 8 μM oligonucleotide,2306.8 pg/mL
same,Levels of TNF-α,[3]; 8 μM oligonucleotide,13.6 pg/mL
same,Levels of IL-6,[3]; 40 μM oligonucleotide,63.3 pg/mL
same,Levels of IL-10,[3]; 40 μM oligonucleotide,4.7 pg/mL
same,Levels of MCP-1,[3]; 40 μM oligonucleotide,2974.9 pg/mL
same,Levels of TNF-α,[3]; 40 μM oligonucleotide,28.1 pg/mL
same,Levels of IL-6,[3]; 200 μM oligonucleotide,64.8 pg/mL
same,Levels of IL-10,[3]; 200 μM oligonucleotide,4.0 pg/mL
same,Levels of MCP-1,[3]; 200 μM oligonucleotide,622.8 pg/mL
same,Levels of TNF-α,[3]; 200 μM oligonucleotide,43.7 pg/mL
771576 (antisense eG*eG*eG*e[5mC]*eA*dG*dG*dA*dG*dA*dG*dA*d[5mC]*dA*d[5mC]*e[5mC]*eG*e[5mC]*eT*eT) [compound 771576],% inhibition of SMAD7 mRNA expression,[4]; [7],9%
same,% inhibition of SMAD7 mRNA expression,"[4]; 740 nM, Study 2, relative to untreated control cells",0%
same,% inhibition of SMAD7 mRNA expression,"[4]; 1250.0 nM, Study 1",24%
same,% inhibition of SMAD7 mRNA expression,"[4]; 2220 nM, Study 2",23%
same,% inhibition of SMAD7 mRNA expression,"[4]; 5000.0 nM, Study 1",55%
same,% inhibition of SMAD7 mRNA expression,"[4]; 6670.0 nM, Study 2",23%
same,% inhibition of SMAD7 mRNA expression,"[4]; 20000.0 nM, Study 1",75%
same,% inhibition of SMAD7 mRNA expression,"[4]; 20000.0 nM, Study 2",22%
same,IC50,[4]; Study 1 (312.5-20000 nM),4 µM
same,IC50,[4]; Study 2 (740-20000 nM),> 20 µM
same,% Inhibition of SMAD7 mRNA,"[5]; electroporation with 15,000 nM antisense oligonucleotide (Study 2)",64%
same,% inhibition of SMAD7 mRNA expression,"[5]; electroporation, 15,000 nM antisense oligonucleotide (Study 2)",28%
same,% Inhibition,[6],49%
same,% inhibition of SMAD7 mRNA expression,[6],50%
771900 (antisense eA*eT*eG*e[5mC]*e[5mC]*d[5mC]*dA*d[5mC]*d[5mC]*dA*dG*dT*d[5mC]*dT*dT*e[5mC]*e[5mC]*eT*eG*eA) [compound 771900],% inhibition of SMAD7 mRNA expression,[4]; [7],0%
same,% inhibition of SMAD7 mRNA expression,"[4]; 1250.0 nM, Study 1",11%
same,% inhibition of SMAD7 mRNA expression,"[4]; 5000.0 nM, Study 1",8%
same,% inhibition of SMAD7 mRNA expression,"[4]; 20000.0 nM, Study 1",29%
same,IC50,[4]; Study 1 (312.5-20000 nM),> 20 µM
same,% Inhibition,[5],32%
771902 (antisense eG*eG*eG*eT*eT*d[5mC]*dT*d[5mC]*d[5mC]*dA*dG*d[5mC]*d[5mC]*dG*d[5mC]*eT*e[5mC]*eA*eG*eA) [compound 771902],% inhibition of SMAD7 mRNA expression,[4]; [7],0%
same,% inhibition of SMAD7 mRNA expression,"[4]; 1250.0 nM, Study 1",17%
same,% inhibition of SMAD7 mRNA expression,"[4]; 5000.0 nM, Study 1",29%
same,% inhibition of SMAD7 mRNA expression,"[4]; 20000.0 nM, Study 1",59%
same,IC50,[4]; Study 1 (312.5-20000 nM),13 µM
same,% Inhibition,[5],77%
